In ChEMBL document CHEMBL1145923, “Synthesis and biological evaluation of 4-arylcoumarin analogues of combretastatins” (J Med Chem, 2003):

Tested on: CCRF-CEM
Assay: Inhibitory activity against CEM human leukemia cell line
Type: functional, cell-based

IC50: > 50 µM
Compound: COc1cc2oc(=O)cc(-c3ccc4c(c3)OCO4)c2c(OC)c1OC
